Laboratory results: the NIST ThermoML archive (doi:10.1021/je7004374)

Key:
[1] = refractive index (Na D-line) (dimensionless); settings: 298.15 K; 101.33 kPa; Liquid; Standard Abbe refractometry
[2] = Liquid; for speed of sound: Sing-around technique in a fixed-path interferometer

OCCCO [propan-1,3-diol]
Settings | refractive index
[1] | 1.438

[2]
Settings | mass density [kg/m3] | speed of sound [m/s]
283.16 K, 101.33 kPa | 1059.09 | –
288.15 K, 101.33 kPa | 1056 | –
292.88 K, 30390 kPa | – | 1721.7
292.89 K, 15200 kPa | – | 1681.2
292.89 K, 45590 kPa | – | 1760.3
292.89 K, 60790 kPa | – | 1797
292.89 K, 75990 kPa | – | 1832.2
292.89 K, 91180 kPa | – | 1865.9
292.89 K, 101320 kPa | – | 1887.8
292.91 K, 100 kPa | – | 1636.5
293.15 K, 100 kPa | 1052.91 | –
293.15 K, 101.33 kPa | – | 1636
293.15 K, 10000 kPa | 1057 | –
293.15 K, 20000 kPa | 1060.96 | –
293.15 K, 30000 kPa | 1064.8 | –
293.15 K, 40000 kPa | 1068.51 | –
293.15 K, 50000 kPa | 1072.11 | –
293.15 K, 60000 kPa | 1075.61 | –
293.15 K, 70000 kPa | 1079.02 | –
293.15 K, 80000 kPa | 1082.34 | –
293.15 K, 90000 kPa | 1085.57 | –
293.15 K, 100000 kPa | 1088.73 | –
293.16 K, 101.33 kPa | 1052.89 | –
298.15 K, 100 kPa | 1049.81 | –
298.15 K, 101.33 kPa | 1049.78 | 1624.5
298.15 K, 10000 kPa | 1053.95 | –
298.15 K, 20000 kPa | 1057.97 | –
298.15 K, 30000 kPa | 1061.86 | –
298.15 K, 40000 kPa | 1065.62 | –
298.15 K, 50000 kPa | 1069.27 | –
298.15 K, 60000 kPa | 1072.82 | –
298.15 K, 70000 kPa | 1076.26 | –
298.15 K, 80000 kPa | 1079.62 | –
298.15 K, 90000 kPa | 1082.89 | –
298.15 K, 100000 kPa | 1086.09 | –
298.16 K, 75990 kPa | – | 1821.4
298.16 K, 91180 kPa | – | 1855.4
298.16 K, 101320 kPa | – | 1877.2
298.17 K, 100 kPa | – | 1624.5
298.17 K, 15200 kPa | – | 1668.7
298.17 K, 30390 kPa | – | 1709.9
298.17 K, 45590 kPa | – | 1748.8
298.17 K, 60790 kPa | – | 1786
303.14 K, 101320 kPa | – | 1868
303.15 K, 100 kPa | 1046.7 | 1613.2
303.15 K, 101.33 kPa | – | 1613.2
303.15 K, 10000 kPa | 1050.89 | –
303.15 K, 20000 kPa | 1054.96 | –
303.15 K, 30000 kPa | 1058.9 | –
303.15 K, 40000 kPa | 1062.72 | –
303.15 K, 45590 kPa | – | 1738.6
303.15 K, 50000 kPa | 1066.41 | –
303.15 K, 60000 kPa | 1070 | –
303.15 K, 60790 kPa | – | 1776
303.15 K, 70000 kPa | 1073.49 | –
303.15 K, 75990 kPa | – | 1811.7
303.15 K, 80000 kPa | 1076.89 | –
303.15 K, 90000 kPa | 1080.2 | –
303.15 K, 91180 kPa | – | 1845.8
303.15 K, 100000 kPa | 1083.43 | –
303.16 K, 101.33 kPa | 1046.65 | –
303.16 K, 15200 kPa | – | 1657.6
303.16 K, 30390 kPa | – | 1699
308.13 K, 100 kPa | – | 1601.9
308.15 K, 100 kPa | 1043.56 | –
308.15 K, 101.33 kPa | – | 1601.8
